Test [1] deals with T1, Caspase-3 (Homo sapiens, UniProt P42574).
T1 sequence (P42574 whole entry): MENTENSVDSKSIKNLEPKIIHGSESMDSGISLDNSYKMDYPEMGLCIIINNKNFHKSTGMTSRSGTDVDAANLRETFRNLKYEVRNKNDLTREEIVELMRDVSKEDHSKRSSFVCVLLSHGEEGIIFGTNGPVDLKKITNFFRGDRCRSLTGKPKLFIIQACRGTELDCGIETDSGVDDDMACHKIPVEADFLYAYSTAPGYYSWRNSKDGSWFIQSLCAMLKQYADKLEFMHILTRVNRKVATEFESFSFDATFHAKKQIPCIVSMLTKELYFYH
In kind it is functional.

Test [2] has as its target T2, Sentrin-specific protease 8 (Homo sapiens, UniProt Q96LD8).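 Note: luminescence read-out of SENP8 inhibition, dose-response confirmation following an ultra-high-throughput screen.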
T2 sequence (Q96LD8 whole entry): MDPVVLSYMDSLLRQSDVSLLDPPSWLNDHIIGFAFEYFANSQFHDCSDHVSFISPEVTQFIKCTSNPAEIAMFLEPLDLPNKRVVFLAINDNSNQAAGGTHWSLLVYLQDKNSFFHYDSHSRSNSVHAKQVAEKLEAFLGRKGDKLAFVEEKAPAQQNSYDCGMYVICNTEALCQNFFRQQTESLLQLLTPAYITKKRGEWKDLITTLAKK
Format: functional.

Test [3] is described as follows: Luminescence-based cell-based high throughput dose response assay to identify activators of the DAF-12 from the parasite S. stercoralis (ssDAF-12). Format: functional.
The target of test [4] is T3, Sentrin-specific protease 6 (Homo sapiens, UniProt Q9GZR1).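 Note: Luminescence-based dose-response confirmatory assay of SENP6 inhibition, following up an ultra-high-throughput screen.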
T3 sequence (Q9GZR1 whole entry): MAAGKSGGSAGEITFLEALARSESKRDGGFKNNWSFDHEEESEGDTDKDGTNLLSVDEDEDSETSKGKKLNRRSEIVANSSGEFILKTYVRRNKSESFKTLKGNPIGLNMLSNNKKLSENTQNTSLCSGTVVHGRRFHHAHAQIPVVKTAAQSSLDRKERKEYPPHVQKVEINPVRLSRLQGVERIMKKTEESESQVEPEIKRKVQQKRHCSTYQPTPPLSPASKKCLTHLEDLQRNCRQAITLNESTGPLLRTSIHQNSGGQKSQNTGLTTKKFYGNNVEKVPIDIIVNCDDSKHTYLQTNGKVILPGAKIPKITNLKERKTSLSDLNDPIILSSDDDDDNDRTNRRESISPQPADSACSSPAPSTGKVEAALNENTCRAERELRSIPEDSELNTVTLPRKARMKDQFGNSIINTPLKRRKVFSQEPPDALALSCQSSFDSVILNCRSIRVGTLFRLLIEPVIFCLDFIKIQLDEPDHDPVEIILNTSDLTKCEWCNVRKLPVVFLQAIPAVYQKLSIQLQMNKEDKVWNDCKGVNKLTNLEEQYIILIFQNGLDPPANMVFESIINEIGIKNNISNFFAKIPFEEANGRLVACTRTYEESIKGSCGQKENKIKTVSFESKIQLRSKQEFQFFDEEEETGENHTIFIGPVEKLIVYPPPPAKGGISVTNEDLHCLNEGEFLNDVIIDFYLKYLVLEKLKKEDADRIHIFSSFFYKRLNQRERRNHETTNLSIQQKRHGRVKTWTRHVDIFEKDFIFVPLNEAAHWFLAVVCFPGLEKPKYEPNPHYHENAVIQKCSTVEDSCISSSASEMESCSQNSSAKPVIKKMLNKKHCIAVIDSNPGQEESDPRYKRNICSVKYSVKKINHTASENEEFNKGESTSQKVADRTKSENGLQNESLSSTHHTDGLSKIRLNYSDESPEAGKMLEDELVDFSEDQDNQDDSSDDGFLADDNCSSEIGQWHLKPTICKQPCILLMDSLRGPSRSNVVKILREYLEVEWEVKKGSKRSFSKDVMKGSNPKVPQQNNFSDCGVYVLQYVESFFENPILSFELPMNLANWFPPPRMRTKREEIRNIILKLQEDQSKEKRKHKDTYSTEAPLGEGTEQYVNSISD
In kind it is functional.

Test [5] has as its target T4, Oxysterols receptor LXR-beta (Homo sapiens, UniProt P55055).
T4 sequence (P55055 whole entry): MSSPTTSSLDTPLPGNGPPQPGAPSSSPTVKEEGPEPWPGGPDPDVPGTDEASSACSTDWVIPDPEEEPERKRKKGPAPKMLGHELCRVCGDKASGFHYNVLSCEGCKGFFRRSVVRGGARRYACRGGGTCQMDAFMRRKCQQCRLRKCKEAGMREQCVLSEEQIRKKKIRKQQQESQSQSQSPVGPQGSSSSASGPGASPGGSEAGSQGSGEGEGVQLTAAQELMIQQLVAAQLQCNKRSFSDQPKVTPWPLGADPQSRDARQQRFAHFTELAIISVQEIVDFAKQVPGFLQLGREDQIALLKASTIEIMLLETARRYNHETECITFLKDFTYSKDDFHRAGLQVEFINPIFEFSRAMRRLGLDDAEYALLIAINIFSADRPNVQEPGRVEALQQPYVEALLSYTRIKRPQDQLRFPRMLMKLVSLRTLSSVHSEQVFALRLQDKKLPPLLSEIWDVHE
Kind of test: LXR agonists, Gal4 luciferase reporter, dose response, counter-screen for ssDAF-12 agonist project, cell-based, luminescence, HEK293, S. stercoralis campaign (AID 720737). In kind it is functional. To be noted: read-out: IC50 (the source's name).

The target in test [6] is T5, Sentrin-specific protease 7 (Homo sapiens, UniProt Q9BQF6).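 Note: Luminescence-based dose-response confirmation of ultra-high-throughput screening hits, measuring inhibition of SENP7.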
T5 sequence (Q9BQF6 whole entry): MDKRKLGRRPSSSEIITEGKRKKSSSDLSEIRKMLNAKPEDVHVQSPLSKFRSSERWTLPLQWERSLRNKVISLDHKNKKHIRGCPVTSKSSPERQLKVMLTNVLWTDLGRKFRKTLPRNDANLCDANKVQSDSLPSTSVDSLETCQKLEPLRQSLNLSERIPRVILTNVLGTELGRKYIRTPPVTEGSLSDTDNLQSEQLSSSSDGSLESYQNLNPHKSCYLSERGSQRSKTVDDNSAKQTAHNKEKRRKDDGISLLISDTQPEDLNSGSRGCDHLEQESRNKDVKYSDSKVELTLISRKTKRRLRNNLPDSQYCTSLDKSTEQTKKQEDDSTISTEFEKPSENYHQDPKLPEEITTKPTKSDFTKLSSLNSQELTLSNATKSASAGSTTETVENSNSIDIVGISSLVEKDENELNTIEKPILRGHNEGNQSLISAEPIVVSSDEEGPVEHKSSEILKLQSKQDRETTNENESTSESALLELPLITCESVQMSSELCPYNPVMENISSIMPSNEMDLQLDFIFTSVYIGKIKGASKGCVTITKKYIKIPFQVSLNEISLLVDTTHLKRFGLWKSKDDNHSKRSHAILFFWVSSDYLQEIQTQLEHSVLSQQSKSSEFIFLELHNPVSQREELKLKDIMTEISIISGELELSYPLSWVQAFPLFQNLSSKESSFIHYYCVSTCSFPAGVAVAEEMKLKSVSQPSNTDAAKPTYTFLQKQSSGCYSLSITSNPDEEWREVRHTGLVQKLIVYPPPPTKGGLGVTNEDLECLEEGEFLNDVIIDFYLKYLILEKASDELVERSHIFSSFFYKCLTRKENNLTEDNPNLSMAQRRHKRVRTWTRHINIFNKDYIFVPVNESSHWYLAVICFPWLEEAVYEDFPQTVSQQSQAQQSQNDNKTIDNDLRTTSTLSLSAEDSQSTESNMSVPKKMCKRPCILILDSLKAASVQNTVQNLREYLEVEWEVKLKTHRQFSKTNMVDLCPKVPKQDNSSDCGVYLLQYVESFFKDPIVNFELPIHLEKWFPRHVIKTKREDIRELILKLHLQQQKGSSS
In kind it is functional.

Test [7] in a line: cells.
Test [8] addresses T4, Oxysterols receptor LXR-beta. Format: functional, cell-based.
Test [9] shares this target. In kind it is functional, cell-based. This is another data set of the same source.
Test [10] has as its target T6, Heat shock factor protein 1 (Mus musculus, UniProt P38532).
T6 sequence (P38532 whole entry): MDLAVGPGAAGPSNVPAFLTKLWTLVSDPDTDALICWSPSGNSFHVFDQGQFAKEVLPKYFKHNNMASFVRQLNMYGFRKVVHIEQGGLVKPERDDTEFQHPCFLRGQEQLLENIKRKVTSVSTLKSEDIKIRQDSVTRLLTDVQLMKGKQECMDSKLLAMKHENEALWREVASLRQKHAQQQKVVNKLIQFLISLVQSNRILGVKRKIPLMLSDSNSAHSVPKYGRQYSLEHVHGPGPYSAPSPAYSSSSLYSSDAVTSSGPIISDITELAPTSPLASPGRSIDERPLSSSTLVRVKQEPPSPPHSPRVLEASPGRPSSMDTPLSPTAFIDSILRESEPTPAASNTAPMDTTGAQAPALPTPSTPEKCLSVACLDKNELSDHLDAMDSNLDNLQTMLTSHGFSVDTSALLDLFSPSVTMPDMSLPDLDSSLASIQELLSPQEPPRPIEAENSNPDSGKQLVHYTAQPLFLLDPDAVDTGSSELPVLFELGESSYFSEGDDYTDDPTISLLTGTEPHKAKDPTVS
Kind of test: enhancement of HSF1-driven luciferase signal – cell-based, NIH3T3, luminescence, dose retest, confirmation (AID 435004).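 Note: stress induced by proteasome inhibitor MG132 added 30 min after compound; luciferase reporter driven by HSF1 response element in NIH3T3 cells; actives raise luminescence as potentiators of the MG132 stress response.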 Format: functional.

Test [11] deals with T7, Aminopeptidase N (Plasmodium falciparum FcB1/Columbia, UniProt O96935).
T7 sequence (O96935 whole entry): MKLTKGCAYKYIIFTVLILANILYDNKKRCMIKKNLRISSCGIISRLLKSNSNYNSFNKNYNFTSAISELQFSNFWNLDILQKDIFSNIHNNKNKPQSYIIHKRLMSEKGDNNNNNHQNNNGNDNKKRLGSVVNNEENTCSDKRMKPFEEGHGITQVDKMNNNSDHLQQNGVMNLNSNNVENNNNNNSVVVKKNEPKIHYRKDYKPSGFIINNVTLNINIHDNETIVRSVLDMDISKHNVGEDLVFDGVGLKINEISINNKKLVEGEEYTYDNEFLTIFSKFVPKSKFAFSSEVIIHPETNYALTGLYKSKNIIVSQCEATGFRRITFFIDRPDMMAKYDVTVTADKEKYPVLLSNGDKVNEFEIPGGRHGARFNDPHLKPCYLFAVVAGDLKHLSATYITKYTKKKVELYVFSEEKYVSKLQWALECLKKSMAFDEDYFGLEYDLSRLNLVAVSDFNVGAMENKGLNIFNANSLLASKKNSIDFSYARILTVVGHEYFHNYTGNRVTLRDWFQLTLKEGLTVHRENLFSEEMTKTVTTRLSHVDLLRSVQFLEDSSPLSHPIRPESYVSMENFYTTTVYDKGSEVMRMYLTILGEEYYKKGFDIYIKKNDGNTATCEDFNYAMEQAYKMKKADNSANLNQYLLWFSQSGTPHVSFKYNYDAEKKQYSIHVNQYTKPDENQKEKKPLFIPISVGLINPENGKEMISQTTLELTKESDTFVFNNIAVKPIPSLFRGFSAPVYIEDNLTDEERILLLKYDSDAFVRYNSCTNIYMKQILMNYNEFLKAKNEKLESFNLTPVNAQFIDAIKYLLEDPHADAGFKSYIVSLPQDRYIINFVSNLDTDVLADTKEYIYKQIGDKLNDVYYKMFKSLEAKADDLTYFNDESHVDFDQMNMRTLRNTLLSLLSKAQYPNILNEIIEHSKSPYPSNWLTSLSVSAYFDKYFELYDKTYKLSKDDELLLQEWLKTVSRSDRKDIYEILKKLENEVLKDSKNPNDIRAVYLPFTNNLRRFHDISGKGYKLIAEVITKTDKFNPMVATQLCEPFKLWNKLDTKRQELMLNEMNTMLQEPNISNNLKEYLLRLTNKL
Kind of test: malaria alanyl aminopeptidase activity blockers – biochemical, fluorogenic H-Leu-NHMec substrate, 1536-well (AID 1445). The arrangement: species or system Plasmodium falciparum 3D7, 3D7.

Test [12] deals with Large T antigen (Simian virus 40, UniProt P03070). In kind it is functional, Betapolyomavirus macacae.
Sequence of Large T antigen (P03070 whole entry): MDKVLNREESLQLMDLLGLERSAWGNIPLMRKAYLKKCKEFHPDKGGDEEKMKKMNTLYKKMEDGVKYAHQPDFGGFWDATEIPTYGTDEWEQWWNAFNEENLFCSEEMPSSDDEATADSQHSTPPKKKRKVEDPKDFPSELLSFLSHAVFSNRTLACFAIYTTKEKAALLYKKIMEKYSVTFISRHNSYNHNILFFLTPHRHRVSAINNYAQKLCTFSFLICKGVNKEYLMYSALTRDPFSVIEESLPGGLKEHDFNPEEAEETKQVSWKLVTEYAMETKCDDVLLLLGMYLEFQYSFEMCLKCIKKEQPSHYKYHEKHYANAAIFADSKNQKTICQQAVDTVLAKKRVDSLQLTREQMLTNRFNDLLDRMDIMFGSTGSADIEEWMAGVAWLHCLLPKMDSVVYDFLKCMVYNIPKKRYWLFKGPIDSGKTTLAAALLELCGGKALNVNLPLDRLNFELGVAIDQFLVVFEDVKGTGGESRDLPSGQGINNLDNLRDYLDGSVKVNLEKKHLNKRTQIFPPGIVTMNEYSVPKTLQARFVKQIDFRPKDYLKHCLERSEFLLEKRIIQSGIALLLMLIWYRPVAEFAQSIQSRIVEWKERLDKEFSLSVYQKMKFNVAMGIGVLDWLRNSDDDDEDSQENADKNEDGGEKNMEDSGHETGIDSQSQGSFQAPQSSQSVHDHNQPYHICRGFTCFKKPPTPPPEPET
Test [13] deals with Induced myeloid leukemia cell differentiation protein Mcl-1 (Homo sapiens, UniProt Q07820). Format: functional.
Sequence of Induced myeloid leukemia cell differentiation protein Mcl-1 (Q07820 whole entry): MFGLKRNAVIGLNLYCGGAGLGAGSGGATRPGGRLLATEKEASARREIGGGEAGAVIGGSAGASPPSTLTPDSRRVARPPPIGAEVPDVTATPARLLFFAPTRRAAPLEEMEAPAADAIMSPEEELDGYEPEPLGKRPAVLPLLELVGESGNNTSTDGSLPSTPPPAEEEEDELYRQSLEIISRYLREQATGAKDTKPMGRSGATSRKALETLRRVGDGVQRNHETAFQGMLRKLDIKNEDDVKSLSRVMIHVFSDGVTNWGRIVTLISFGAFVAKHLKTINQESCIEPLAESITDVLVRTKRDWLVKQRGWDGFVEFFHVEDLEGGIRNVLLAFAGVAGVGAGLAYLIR
A short description of test [14]: A2780 cell killing – plate reader, dry powder samples, cytotoxicity control, dose response (AID 743046). In kind it is functional, cell-based.
A short description of test [15]: OVCAR-3 cell viability loss – plate reader, dry powder samples, PAX8 inhibitor project, dose response (AID 743044). In kind it is functional, cell-based.
The nature of test [16]: OVCAR8 cell viability loss – plate reader, dry powder samples, PAX8 project, dose response (AID 743197). In kind it is functional, cell-based. The settings on record: OVCAR-8.
Test [17] has as its target Paired box protein Pax-8 (Homo sapiens, UniProt Q06710). The test is described as follows: PAX8 transcriptional activity inhibition in RMG-I – RMG-I cells, luciferase, cherry-pick, dose response (AID 687027).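 Note: luciferase reporter driven by Pax8 target thyroperoxidase promoter measured by SteadyGlo luminescence.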 Format: functional, cell-based.

The source made the active and inactive calls. Some results are limits rather than exact numbers.

Sequence of Paired box protein Pax-8 (Q06710 whole entry): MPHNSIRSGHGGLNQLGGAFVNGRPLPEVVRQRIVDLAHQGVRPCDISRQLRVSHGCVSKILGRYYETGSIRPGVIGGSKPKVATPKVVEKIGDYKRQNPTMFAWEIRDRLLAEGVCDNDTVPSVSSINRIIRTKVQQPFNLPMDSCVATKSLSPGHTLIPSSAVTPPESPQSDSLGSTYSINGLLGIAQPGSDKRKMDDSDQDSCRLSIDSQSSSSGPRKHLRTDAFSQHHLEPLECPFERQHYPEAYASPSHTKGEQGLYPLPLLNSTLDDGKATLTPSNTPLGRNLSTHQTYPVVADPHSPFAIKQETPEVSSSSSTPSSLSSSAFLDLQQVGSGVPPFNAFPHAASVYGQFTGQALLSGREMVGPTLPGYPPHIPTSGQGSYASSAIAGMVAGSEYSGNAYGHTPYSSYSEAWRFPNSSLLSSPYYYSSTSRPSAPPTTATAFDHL

By IC50 is commonly meant the concentration that gives 50% inhibition. For `Cc1ccc(Nc2nc(-c3cccnc3)cs2)cc1C`, the IC50 in test [1] was 34.4 µM (active); in test [2], 7.16 µM (active); in test [3] it was > 67.6 µM (inactive); in test [4], 7.01 µM (active); in test [6], 5.02 µM (active). The EC50 in [5], in test [7] and in test [8] was > 67.6 µM (inactive) each time.

For the compound `Cc1ccc2oc(-c3cccc(N)c3)nc2c1`, the results for the EC50 in [9] and in test [10] were > 67.6 µM (inactive) and > 260 µM (inconclusive), respectively.

Turning to `COc1cc(/C=C2/C(=N)N3N=C(c4ccc(C)cc4)SC3=NC2=O)ccc1O`, the IC50 was 66.1 µM (active) in test [11], 7.62 µM (active) in test [12] and 3.26 µM (active) in test [13]. Also, the EC50 in test [9] was > 67.5 µM (inactive).

One may read the AC50 as the concentration at which the activity in the assay is half-maximal. Take `Cc1ccccc1S(=O)(=O)N1CC[C@@H]2[C@H](CO)Nc3ccc(-c4cccc(F)c4)cc3[C@@H]21`: the half-maximal activity concentration (AC50) in [14] was 0.711 µM (active); in test [15], 53.8 µM (active); in test [16], 46.7 µM (active); in [17], 13.6 µM (active).

Take `Cc1ccc(-c2noc(-c3ccccc3Br)n2)cc1`: the EC50 in test [7] and in test [8] was > 67.5 µM (inactive) each time.

These data come from ChEMBL document CHEMBL1201862, “PubChem BioAssay data set” (2004).
